What is called pIC50 is the IC50 on a negative log10 scale, so that one unit is a factor of ten.

The text below walks through data of patent publication US20260347338A1, “PYRIMIDINE/PYRIDINE DERIVATIVES OR SALTS THEREOF AND PHARMACEUTICAL COMPOSITIONS COMPRISING THE SAME” (YUHAN CORPORATION, priority 2023, published 2026).

pIC50: −log10 of the molar value. Structures can show the parent of a compound that is named as a salt. A value given as a limit tells only on which side of the number the result lay.

In this assay the target is T1, human recombinant HPK1 (Homo sapiens, UniProt Q92918).
T1 construct: purchased BPS Bioscience
In words: Inhibitory activity against human recombinant HPK1 (TR-FRET). The assay is classed as biochemical. The conditions noted are these: ULight-p70S6K peptide, ATP at Km, room temperature, 1 hour, 0.32 to 1000 nM compound. Summed up: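 Recombinant human HPK1 with ULight-p70S6K peptide and ATP at Km, 1 h at room temperature in HEPES pH 7.4 buffer with Mg2+, Mn2+, EGTA, DTT; compounds 0.32–1000 nM final. EDTA stop, Eu-anti-phosphopeptide TR-FRET read (665 nm); IC50 from % inhibition versus DMSO, binned A–D at 10, 50, 100 nM.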
In general terms: TR-FRET usually uses a lanthanide donor and a delayed reading to cut background.

T1 sequence (Q92918 whole entry): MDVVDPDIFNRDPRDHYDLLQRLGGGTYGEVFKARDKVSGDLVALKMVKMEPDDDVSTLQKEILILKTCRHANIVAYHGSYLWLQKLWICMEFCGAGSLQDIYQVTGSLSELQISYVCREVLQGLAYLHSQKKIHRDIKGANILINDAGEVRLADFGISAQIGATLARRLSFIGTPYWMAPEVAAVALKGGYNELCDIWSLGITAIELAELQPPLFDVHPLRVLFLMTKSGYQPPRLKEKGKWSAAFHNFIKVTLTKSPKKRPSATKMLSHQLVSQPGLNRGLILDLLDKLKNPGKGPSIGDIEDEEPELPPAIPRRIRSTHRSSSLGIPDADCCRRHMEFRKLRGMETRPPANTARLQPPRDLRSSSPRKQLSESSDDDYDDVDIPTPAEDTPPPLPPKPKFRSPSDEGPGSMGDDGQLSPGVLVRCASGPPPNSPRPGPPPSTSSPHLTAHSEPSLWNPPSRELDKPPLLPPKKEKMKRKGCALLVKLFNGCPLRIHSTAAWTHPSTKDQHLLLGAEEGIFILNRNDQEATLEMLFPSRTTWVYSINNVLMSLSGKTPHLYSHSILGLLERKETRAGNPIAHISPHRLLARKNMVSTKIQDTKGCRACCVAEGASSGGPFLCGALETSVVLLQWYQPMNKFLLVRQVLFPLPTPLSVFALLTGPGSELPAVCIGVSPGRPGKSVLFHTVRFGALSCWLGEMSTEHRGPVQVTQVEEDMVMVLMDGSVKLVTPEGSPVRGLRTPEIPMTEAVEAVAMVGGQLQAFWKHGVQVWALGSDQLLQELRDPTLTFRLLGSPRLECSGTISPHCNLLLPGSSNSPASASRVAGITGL

Consider `COc1cccc(F)c1-c1nccc(Nc2cc(N3CCC[C@H](N)C3)c(-c3cnn(CC(C)(C)OC)c3)cn2)n1` [Example 229, (S)-N-(4-(3-aminopiperidin-1-yl)-5-(1-(2-methoxy-2-methylpropyl)-1H-pyrazol-4-yl)pyridin-2-yl)-2-(2-fluoro-6-methoxyphenyl)pyrimidin-4-amine], for which the pIC50 was no less than 8.00.
The same measure for `COc1cc(CO)cc(F)c1-c1nccc(Nc2cc(N3CCC[C@H](N)C3)c(-c3cnn(C(F)F)c3)cn2)n1` [Example 101, (S)-(4-(4-((4-(3-aminopiperidin-1-yl)-5-(1-(difluoromethyl)-1H-pyrazol-4-yl)pyridin-2-yl)amino)pyrimidin-2-yl)-3-fluoro-5-methoxyphenyl)methanol hydrochloride]: no less than 8.00; for `COc1cccc(F)c1-c1nccc(Nc2cc(N3CCC[C@H](N)C3)c(-c3cnn(C4COC4)c3)cn2)n1` [Example 277, (S)-N-(4-(3-aminopiperidin-1-yl)-5-(1-(oxetan-3-yl)-1H-pyrazol-4-yl)pyridin-2-yl)-2-(2-fluoro-6-methoxyphenyl)pyrimidin-4-amine hydrochloride]: no less than 8.00; for `N[C@H]1CCCN(c2cc(Nc3cccc(N4CCOC4=O)n3)ncc2-c2ccc(N3CCOCC3)nc2)C1` [Example 138, (S)-3-(6-((4-(3-aminopiperidin-1-yl)-6′-morpholino-[3,3′-bipyridin]-6-yl)amino)pyridin-2-yl)oxazolidin-2-one hydrochloride]: 7.00 to 7.30.
Consider `COc1cccc(F)c1-c1nc(Nc2cc(N3CCC[C@H](O)C3)c(-c3ccc(C(=O)N4CCC(O)CC4)nc3)cn2)ccc1[N+](=O)[O-]` [Example 54, (6′-((6-(2-fluoro-6-methoxyphenyl)-5-nitropyridin-2-yl)amino)-4′-((S)-3-hydroxypiperidin-1-yl)-[3,3′-bipyridin]-6-yl)(4-hydroxypiperidin-1-yl)methanone], for which the negative-log IC50 (pIC50) is 7.30 to 8.00.
As for `COc1cccc(F)c1-c1nccc(Nc2cc(N3CCC(C(C)O)CC3)c(-c3cnn(C4CCOCC4)c3)cn2)n1` (stereo not shown) [Example 66, 1-(1-(2-((2-(2-fluoro-6-methoxyphenyl)pyrimidin-4-yl)amino)-5-(1-(tetrahydro-2H-pyran-4-yl)-1H-pyrazol-4-yl)pyridin-4-yl)piperidin-4-yl)ethan-1-ol], the negative logarithm of the IC50 (pIC50) is no less than 8.00.
With `COc1cc(F)cc(F)c1-c1nccc(Nc2cc(N3CCC[C@H](O)C3)c(-c3cnn(CC(F)(F)F)c3)cn2)n1` [Example 174, (S)-1-(2-((2-(2,4-difluoro-6-methoxyphenyl)pyrimidin-4-yl)amino)-5-(1-(2,2,2-trifluoroethyl)-1H-pyrazol-4-yl)pyridin-4-yl)piperidin-3-ol], the pIC50 is no less than 8.00.
On to `COc1cccc(F)c1-c1nccc(Nc2cc(N3CCC[C@@H](N)C3)c(-c3cnn(C4CCOCC4)c3)cn2)n1` [Example 53, (R)-N-(4-(3-aminopiperidin-1-yl)-5-(1-(tetrahydro-2H-pyran-4-yl)-1H-pyrazol-4-yl)pyridin-2-yl)-2-(2-fluoro-6-methoxyphenyl)pyrimidin-4-amine], for which the pIC50 is no less than 8.00.
The same measure for `COc1cccc(F)c1-c1nccc(Nc2cc(N3CCC[C@@H](O)C3)c(C#Cc3cnn(C(F)(F)F)c3)cn2)n1` [Example 9, (R)-1-(2-((2-(2-fluoro-6-methoxyphenyl)pyrimidin-4-yl)amino)-5-((1-(trifluoromethyl)-1H-pyrazol-4-yl)ethynyl)pyridin-4-yl)piperidin-3-ol]: 7.30 to 8.00; for `COc1cccc(F)c1-c1nccc(Nc2cc(N3CCC[C@H](O)C3)c(-c3ccc(N4CCN(C)CC4)cc3)cn2)n1` [Example 19, (S)-1-(2-((2-(2-fluoro-6-methoxyphenyl)pyrimidin-4-yl)amino)-5-(4-(4-methylpiperazin-1-yl)phenyl)pyridin-4-yl)piperidin-3-ol]: no less than 8.00.
For the compound `COc1cc(F)cc(F)c1-c1nccc(Nc2cc(N3CCC[C@H](N)C3)c(C#CCCO)cn2)n1` [Example 314, (S)-4-(4-(3-aminopiperidin-1-yl)-6-((2-(2,4-difluoro-6-methoxyphenyl)pyrimidin-4-yl)amino)pyridin-3-yl)but-3-yn-1-ol], the pIC50 is no less than 8.00.
The same measure for `COc1cccc(F)c1-c1nccc(Nc2cc(N3C[C@@H](C)C[C@H](N)C3)c(-c3cnn(C(F)F)c3)cn2)n1` [Example 205, N-(4-((3S,5S)-3-amino-5-methylpiperidin-1-yl)-5-(1-(difluoromethyl)-1H-pyrazol-4-yl)pyridin-2-yl)-2-(2-fluoro-6-methoxyphenyl)pyrimidin-4-amine hydrochloride]: no less than 8.00.
The value for `COc1cc(F)cc(F)c1-c1nc(Nc2cc(N3CCC[C@H](O)C3)c(-c3cnn(CC(F)(F)F)c3)cn2)ccc1C#N` [Example 317, 2-(2,4-difluoro-6-methoxyphenyl)-6-((4-((S)-3-hydroxypiperidin-1-yl)-5-(1-(2,2,2-trifluoroethyl)-1H-pyrazol-4-yl)pyridin-2-yl)amino)nicotinonitrile] was no less than 8.00.
For the compound `COc1cccc(F)c1-c1nccc(Nc2cc(N3CCC[C@H](N)C3)c(C#Cc3cnn(C(F)(F)F)c3)cn2)n1` [Example 111, (S)-N-(4-(3-aminopiperidin-1-yl)-5-((1-(trifluoromethyl)-1H-pyrazol-4-yl)ethynyl)pyridin-2-yl)-2-(2-fluoro-6-methoxyphenyl)pyrimidin-4-amine hydrochloride], the pIC50 was no less than 8.00.
The same measure for `COc1cncc(-c2nccc(Nc3cc(N4CCC[C@H](O)C4)c(C(=O)C4CC4)cn3)n2)c1` [Example 3, (S)-cyclopropyl(4-(3-hydroxypiperidin-1-yl)-6-((2-(5-methoxypyridin-3-yl)pyrimidin-4-yl)amino)pyridin-3-yl)methanone]: 7.00 to 7.30.
The same measure for `N[C@H]1CCCN(c2cc(Nc3ccnc(-c4c(F)cccc4CO)n3)ncc2C#Cc2cnn(C(F)F)c2)C1` [Example 243, (S)-(2-(4-((4-(3-aminopiperidin-1-yl)-5-((1-(difluoromethyl)-1H-pyrazol-4-yl)ethynyl)pyridin-2-yl)amino)pyrimidin-2-yl)-3-fluorophenyl)methanol hydrochloride]: no less than 8.00.
The value for “(S)-N-(4-(3-aminopiperidin-1-yl)-5-((tetrahydro-2H-pyran-4-yl)ethynyl)pyridin-2-yl)-2-(7-fluoroquinoxalin-6-yl)pyrimidin-4-amine hydrochloride [Example 90]” was no less than 8.00; that for `CNC[C@H]1CCCN(c2cc(Nc3ccnc(-c4c(F)cccc4OC)n3)ncc2-c2cnn(C(F)F)c2)C1` [Example 267, (R)-N-(5-(1-(difluoromethyl)-1H-pyrazol-4-yl)-4-(3-((methylamino)methyl)piperidin-1-yl)pyridin-2-yl)-2-(2-fluoro-6-methoxyphenyl)pyrimidin-4-amine hydrochloride] was no less than 8.00.
Take `COc1cccc(F)c1-c1nccc(Nc2cc(N3CCC[C@H](N)C3)c(-c3cnn(CCC(N)=O)c3)cn2)n1` [Example 167, (S)-3-(4-(4-(3-aminopiperidin-1-yl)-6-((2-(2-fluoro-6-methoxyphenyl)pyrimidin-4-yl)amino)pyridin-3-yl)-1H-pyrazol-1-yl)propanamide hydrochloride]: the pIC50 was no less than 8.00.
The same measure for `COc1cccc(F)c1-c1nccc(Nc2cc(N3CCC[C@H](N)C3)c(-c3ccc(C(=O)N(C)C)c(F)c3)cn2)n1` [Example 290, (S)-4-(4-(3-aminopiperidin-1-yl)-6-((2-(2-fluoro-6-methoxyphenyl)pyrimidin-4-yl)amino)pyridin-3-yl)-2-fluoro-N,N-dimethylbenzamide hydrochloride]: no less than 8.00.
Take `COc1cccc(F)c1-c1nccc(Nc2cc(N3CCC[C@H](N)C3)c(-c3ccc(F)c(F)c3)cn2)n1` [Example 294, (S)-N-(4-(3-aminopiperidin-1-yl)-5-(3,4-difluorophenyl)pyridin-2-yl)-2-(2-fluoro-6-methoxyphenyl)pyrimidin-4-amine hydrochloride]: the pIC50 is no less than 8.00.
For `COc1cccc(F)c1-c1nccc(Nc2cc(N3CCC[C@H](N)C3)c(-c3ccc(OC(F)(F)F)c(C)c3)cn2)n1` [Example 281, (S)-N-(4-(3-aminopiperidin-1-yl)-5-(3-methyl-4-(trifluoromethoxy)phenyl)pyridin-2-yl)-2-(2-fluoro-6-methoxyphenyl)pyrimidin-4-amine hydrochloride], the pIC50 is no less than 8.00.
The value for `COc1cccc(F)c1-c1nccc(Nc2cc(N3CCC(CCN(C)C)CC3)c(-c3cnn(CC(F)(F)F)c3)cn2)n1` [Example 148, N-(4-(4-(2-(dimethylamino)ethyl)piperidin-1-yl)-5-(1-(2,2,2-trifluoroethyl)-1H-pyrazol-4-yl)pyridin-2-yl)-2-(2-fluoro-6-methoxyphenyl)pyrimidin-4-amine] was no less than 8.00; that for `O[C@H]1CCCN(c2cc(Nc3ccnc(-c4ccc5nccnc5c4)n3)ncc2-c2cnn(C3CCOCC3)c2)C1` [Example 28, (S)-1-(2-((2-(quinoxalin-6-yl)pyrimidin-4-yl)amino)-5-(1-(tetrahydro-2H-pyran-4-yl)-1H-pyrazol-4-yl)pyridin-4-yl)piperidin-3-ol] was 7.30 to 8.00.
As to `COc1cccc(F)c1-c1nccc(Nc2cc(N3CC[C@H](OC)[C@H](N)C3)c(-c3cnn(C(F)F)c3)cn2)n1` [Example 253, N-(4-((3R,4S)-3-amino-4-methoxypiperidin-1-yl)-5-(1-(difluoromethyl)-1H-pyrazol-4-yl)pyridin-2-yl)-2-(2-fluoro-6-methoxyphenyl)pyrimidin-4-amine], the pIC50 is no less than 8.00.
